Source: patent publication US10316039B2, “P2X3 and/or P2X2/3 compounds and methods” (Asana Biosciences, LLC, priority 2013, dated 2019)

What was measured:
[1] = biological target: T1, P2X3 (UniProt P56373); assay: P2X3 FLIPR intracellular calcium assay; format: cell-based; conditions: agonist at EC75, species (human or rat) not given
T1 sequence (P56373 1-397): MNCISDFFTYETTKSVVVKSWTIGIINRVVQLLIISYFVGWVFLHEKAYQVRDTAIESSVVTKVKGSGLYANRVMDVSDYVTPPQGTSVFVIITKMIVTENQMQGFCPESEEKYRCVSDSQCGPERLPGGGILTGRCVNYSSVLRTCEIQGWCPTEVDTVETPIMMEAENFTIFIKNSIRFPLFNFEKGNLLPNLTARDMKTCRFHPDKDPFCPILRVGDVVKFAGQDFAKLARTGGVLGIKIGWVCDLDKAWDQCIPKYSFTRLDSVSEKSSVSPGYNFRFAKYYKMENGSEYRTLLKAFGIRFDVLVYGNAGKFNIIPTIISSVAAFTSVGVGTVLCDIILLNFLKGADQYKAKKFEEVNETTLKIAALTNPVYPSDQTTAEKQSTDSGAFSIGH
In short: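 Human P2X3-HEK, human P2X2/3-TRex293, rat P2X2/3-TRex293 or rat P2X3 TRex-CHO cells loaded with Calcium 4 dye (1.8 mM probenecid, pH 7.4).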

[2] = biological target: T2, P2X2/3 (Homo sapiens, UniProt P56373+Q9UBL9); assay: P2X2/3 FLIPR intracellular calcium assay; format: cell-based; conditions: agonist at EC75, species (human or rat) not given
T2 sequence (Q9UBL9 1-471): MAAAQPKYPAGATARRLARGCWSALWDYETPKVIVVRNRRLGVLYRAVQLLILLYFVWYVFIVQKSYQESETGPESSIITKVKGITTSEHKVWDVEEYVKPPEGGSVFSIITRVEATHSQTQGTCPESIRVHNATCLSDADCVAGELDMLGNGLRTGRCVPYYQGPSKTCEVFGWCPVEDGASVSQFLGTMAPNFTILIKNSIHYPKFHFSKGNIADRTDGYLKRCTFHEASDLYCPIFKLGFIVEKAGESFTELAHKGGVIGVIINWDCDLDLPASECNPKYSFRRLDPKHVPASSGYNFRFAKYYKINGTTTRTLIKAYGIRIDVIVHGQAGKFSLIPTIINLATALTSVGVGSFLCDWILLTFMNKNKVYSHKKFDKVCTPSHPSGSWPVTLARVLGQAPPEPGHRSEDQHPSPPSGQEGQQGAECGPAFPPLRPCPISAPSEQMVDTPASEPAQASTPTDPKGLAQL
T2 sequence (P56373 1-397): T1 sequence (P56373 1-397)
In short: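 Stable human P2X2/3 TRex293 cells (doxycycline-induced) loaded with Calcium 4 dye; compounds, 11-point half-log series from 2 mM top stock, preincubated 15 min at RT in HBSS/HEPES pH 7.4 with 1.8 mM CaCl2. Agonist added at EC75; fluorescence change versus no-compound wells gave IC50.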

For `Cc1cnc(CNC(=O)c2cc(-n3nncc3C(F)F)c3ncc(-c4ncc(C)s4)n3c2)cn1` [Example 77], the IC50 [1] was 1 to 100 nM and the IC50 [2] was 100 to 1000 nM.
`Cc1cnc(CNC(=O)c2cc(-n3nncc3C(F)F)c3ncc(-c4ccc(C)o4)n3c2)cn1` [Example 78] was tested, and the IC50 [1] was 1 to 100 nM and the IC50 [2] was 1 to 100 nM.
In the case of `C[C@H](NC(=O)c1cc(-n2nncc2C(F)(F)F)c2ncc(-c3ccc(Cl)s3)n2c1)c1nnc[nH]1` [Example 79], the IC50 [1] is reported as 1 to 100 nM and the IC50 [2] is reported as 1 to 100 nM.
Work on `Cc1ncc(CNC(=O)c2cc(-n3nncc3CC(F)(F)F)c3ncc(-c4ccc(C)s4)n3c2)cn1` [Example 80] yielded an IC50 [1] of 1 to 100 nM and an IC50 [2] of 1 to 100 nM.
For `Cc1ccc(-c2cnc3c(-n4nncc4CC(F)(F)F)cc(C(=O)N[C@@H](C)c4nnc[nH]4)cn23)s1` [Example 81], the IC50 [1] was 1 to 100 nM and the IC50 [2] was 1 to 100 nM.
In the case of `Cc1ncc(CNC(=O)c2cc(-n3nncc3CC(F)(F)F)c3ncc(-c4ncc(C)s4)n3c2)cn1` [Example 82], the IC50 [1] is reported as 1 to 100 nM and the IC50 [2] is reported as 100 to 1000 nM.
With `COc1ccc(CNC(=O)c2cc(-n3nncc3C(F)F)c3ncc(-c4ccc(C)s4)n3c2)cn1` [Example 83] the IC50 [1] was 1 to 100 nM and the IC50 [2] was 1 to 100 nM.
In the case of `Cc1ncc([C@@H](C)NC(=O)c2cc(-n3nncc3C(F)F)c3ncc(-c4ncc(C)s4)n3c2)cn1` [Example 84], the IC50 [1] is reported as 1 to 100 nM and the IC50 [2] is reported as 1 to 100 nM.
`Cc1noc([C@@H](C)NC(=O)c2cc(-n3nncc3C(F)F)c3ncc(-c4ccc(C)s4)n3c2)n1` [Example 85] was tested, and the IC50 [1] was 1 to 100 nM and the IC50 [2] was 1 to 100 nM.
In the case of `COc1ncc(CNC(=O)c2cc(-n3nncc3C(F)(F)F)c3ncc(-c4ncc(C)s4)n3c2)cn1` [Example 86], the IC50 [1] is reported as 100 to 1000 nM and the IC50 [2] is reported as 100 to 1000 nM.
For `Cc1ccc(CNC(=O)c2cc(-n3nncc3C(C)(F)F)c3ncc(-c4ncc(C)s4)n3c2)cn1` [Example 87], the IC50 [1] was 100 to 1000 nM and the IC50 [2] was 100 to 1000 nM.
Work on `CCc1cnnn1-c1cc(C(=O)N[C@H](C)c2nc(C)no2)cn2c(-c3ccc(C)s3)cnc12` [Example 88] yielded an IC50 [1] of over 10000 nM and an IC50 [2] of 1 to 100 nM.
Work on `Cc1ccc(-c2cnc3c(Nc4ccccc4)cc(C(=O)NCc4ccn(C)c(=O)c4)cn23)s1` [Example 90] yielded an IC50 [1] of 1 to 100 nM and an IC50 [2] of 1000 to 10000 nM.
Compound `Cc1ccc(CNC(=O)c2cc(Nc3ccccc3)c3ncc(-c4ccc(C)s4)n3c2)cn1` [Example 91] has an IC50 [1] of 100 to 1000 nM and an IC50 [2] of 1000 to 10000 nM.
`Cc1ccc(-c2cnc3c(Nc4nccs4)cc(C(=O)N[C@@H](C)c4nnc[nH]4)cn23)s1` [Example 92] showed an IC50 [1] of 100 to 1000 nM and an IC50 [2] of 1000 to 10000 nM.
In the case of `Cc1ccc(-c2cnc3c(Nc4nccs4)cc(C(=O)NCc4ccn(C)c(=O)c4)cn23)s1` [Example 93], the IC50 [1] is reported as 100 to 1000 nM and the IC50 [2] is reported as 1000 to 10000 nM.
With `Cc1ccc(-c2cnc3c(Nc4ncc(C)s4)cc(C(=O)N[C@@H](C)c4nnc[nH]4)cn23)s1` [Example 94] the IC50 [1] was 1 to 100 nM and the IC50 [2] was 1000 to 10000 nM.
In the case of `Cc1ccc(-c2cnc3c(Nc4ccc(F)cc4)cc(C(=O)N[C@@H](C)c4nnc[nH]4)cn23)s1` [Example 95], the IC50 [1] is reported as 1 to 100 nM and the IC50 [2] is reported as over 10000 nM.
`COc1ccccc1Nc1cc(C(=O)N[C@@H](C)c2nnc[nH]2)cn2c(-c3ccc(C)s3)cnc12` [Example 96] was tested, and the IC50 [1] was 100 to 1000 nM and the IC50 [2] was 100 to 1000 nM.
`Cc1ccc(CNC(=O)c2cc(-c3cnn(C)c3)c3ncc(-c4ccc(C)s4)n3c2)cn1` [Example 98] was tested, and the IC50 [1] was 1000 to 10000 nM and the IC50 [2] was 100 to 1000 nM.
Compound `Cc1ccc(-c2cnc3c(-c4cnn(C)c4)cc(C(=O)NCc4ccn(C)c(=O)c4)cn23)s1` [Example 99] has an IC50 [1] of 1 to 100 nM and an IC50 [2] of 1000 to 10000 nM.
With `Cc1ccc(-c2cnc3c(-c4ccnn4C)cc(C(=O)N[C@@H](C)c4nnc[nH]4)cn23)s1` [Example 100] the IC50 [1] was 1 to 100 nM and the IC50 [2] was 100 to 1000 nM.
Compound `Cc1ccc(-c2cc(C(=O)N[C@@H](C)c3nnc[nH]3)cn3c(-c4ccc(C)s4)cnc23)s1` [Example 101] has an IC50 [1] of 1 to 100 nM and an IC50 [2] of 1 to 100 nM.
With `Cc1ccc(-c2cnc3c(-c4c(C)noc4C)cc(C(=O)N[C@@H](C)c4nnc[nH]4)cn23)s1` [Example 102] the IC50 [1] was 1 to 100 nM and the IC50 [2] was 1 to 100 nM.
`CCn1nccc1-c1cc(C(=O)N[C@@H](C)c2nnc[nH]2)cn2c(-c3ccc(C)s3)cnc12` [Example 103] gave an IC50 [1] of 1 to 100 nM and an IC50 [2] of 100 to 1000 nM.
`Cc1ccc(-c2cnc3c(-c4cnn(CC5CC5)c4)cc(C(=O)N[C@@H](C)c4nnc[nH]4)cn23)s1` [Example 104] was tested, and the IC50 [1] was 1 to 100 nM and the IC50 [2] was 100 to 1000 nM.
With `Cc1ccc(-c2cnc3c(-c4cnn(CCF)c4)cc(C(=O)N[C@@H](C)c4nnc[nH]4)cn23)s1` [Example 105] the IC50 [1] was 1 to 100 nM and the IC50 [2] was 100 to 1000 nM.
In the case of `Cc1ccc(CNC(=O)c2cc(-c3c(C)noc3C)c3ncc(-c4ccc(C)s4)n3c2)cn1` [Example 106], the IC50 [1] is reported as over 10000 nM and the IC50 [2] is reported as 1 to 100 nM.
In the case of `Cc1noc(C)c1-c1cc(C(=O)N[C@@H](C)c2nnc[nH]2)cn2c(-c3ccc(Cl)s3)cnc12` [Example 107], the IC50 [1] is reported as 1 to 100 nM and the IC50 [2] is reported as 1 to 100 nM.
`CC[C@H](NC(=O)c1cc(-c2c(C)noc2C)c2ncc(-c3ccc(C)s3)n2c1)c1nnc[nH]1` [Example 108] was tested, and the IC50 [1] was 1 to 100 nM and the IC50 [2] was 1 to 100 nM.
`Cc1cnc(-c2cnc3c(-c4c(C)noc4C)cc(C(=O)N[C@@H](C)c4nnc[nH]4)cn23)s1` [Example 109] was tested, and the IC50 [1] was 1 to 100 nM and the IC50 [2] was 100 to 1000 nM.
`Cc1ccc(-c2cnc3c(-c4c(C)n[nH]c4C)cc(C(=O)N[C@@H](C)c4nnc[nH]4)cn23)s1` [Example 110] gave an IC50 [1] of 1 to 100 nM and an IC50 [2] of 1 to 100 nM.
For `Cc1ncc(CNC(=O)c2cc(-c3c(C)n[nH]c3C)c3ncc(-c4ccc(C)s4)n3c2)cn1` [Example 111], the IC50 [1] was over 10000 nM and the IC50 [2] was 1 to 100 nM.
`Cc1ccc(-c2cnc3c(-c4cnn(CC(N)=O)c4)cc(C(=O)N[C@@H](C)c4nnc[nH]4)cn23)s1` [Example 112] gave an IC50 [1] of 100 to 1000 nM and an IC50 [2] of 1000 to 10000 nM.
`Cc1ccc(CNC(=O)c2cc(N3CCC(C)CC3)c3ncc(-c4ccc(C)s4)n3c2)cn1` [Example 115] gave an IC50 [1] of 1000 to 10000 nM and an IC50 [2] of 100 to 1000 nM.
With `Cc1cnc(CNC(=O)c2cc(N3CCC(C)CC3)c3ncc(-c4ccc(C)s4)n3c2)cn1` [Example 116] the IC50 [1] was 1000 to 10000 nM and the IC50 [2] was 100 to 1000 nM.
With `CC1CCN(c2cc(C(=O)N[C@@H](C)c3nnc[nH]3)cn3c(-c4ccc(Cl)s4)cnc23)CC1` [Example 118] the IC50 [1] was 100 to 1000 nM and the IC50 [2] was 100 to 1000 nM.
With `Cc1ccc(-c2cnc3c(NC4CCCCC4)cc(C(=O)N[C@@H](C)c4nnc[nH]4)cn23)s1` [Example 121] the IC50 [1] was 100 to 1000 nM and the IC50 [2] was 100 to 1000 nM.
`Cc1ccc(-c2cnc3c(N4CCC(C)CC4)cc(C(=O)NCc4ccn(C)c(=O)c4)cn23)s1` [Example 128] was tested, and the IC50 [1] was 1 to 100 nM and the IC50 [2] was 100 to 1000 nM.
`Cc1ccc(-c2cnc3c(N4CCC(C)(C)CC4)cc(C(=O)N[C@@H](C)c4nnc[nH]4)cn23)s1` [Example 129] showed an IC50 [1] of 1 to 100 nM and an IC50 [2] of 100 to 1000 nM.
`Cc1ccc(-c2cnc3c(N4CCC(F)(F)CC4)cc(C(=O)N[C@@H](C)c4nnc[nH]4)cn23)s1` [Example 130] gave an IC50 [1] of 1 to 100 nM and an IC50 [2] of 1 to 100 nM.
In the case of `Cc1ccc(-c2cnc3c(N4CCC(CF)CC4)cc(C(=O)N[C@@H](C)c4nnc[nH]4)cn23)s1` [Example 133], the IC50 [1] is reported as 1 to 100 nM and the IC50 [2] is reported as 100 to 1000 nM.
For `Cc1ccc(-c2cnc3c(N4CCC(C(F)(F)F)CC4)cc(C(=O)N[C@@H](C)c4nnc[nH]4)cn23)s1` [Example 134], the IC50 [1] was 1 to 100 nM and the IC50 [2] was 1000 to 10000 nM.
`Cc1ccc(-c2cnc3c(NC4CCCC4)cc(C(=O)N[C@@H](C)c4nnc[nH]4)cn23)s1` [Example 135] was tested, and the IC50 [1] was 100 to 1000 nM and the IC50 [2] was 100 to 1000 nM.
`Cc1csc(-c2cnc3c(N4CCC(F)(F)CC4)cc(C(=O)N[C@@H](C)c4nnc[nH]4)cn23)c1` [Example 136] gave an IC50 [1] of 1 to 100 nM and an IC50 [2] of 100 to 1000 nM.
